In brackets after ≈: the same amount, converted by molar mass. Square brackets hold non-standard residues; d marks the D form. Ends that are not written are not given here. Peptide text beside a SMILES is read from it.
Tests used:
Format in all cases: cell-based
[1] = tested on: Enterococcus faecalis CIP 103015; experiment: MIC/MBC (Example 10, MH medium); conditions: Table 5; E. faecalis CIP 103015
Description: (§1) The MIC is determined using a growth inhibition test in liquid medium. The MIC is defined as being the lowest peptide concentration capable of inhibiting the bacterial strain tested, after incubation for 18 h at 37° C. The test was carried out in a sterile microtitration plate containing 96 wells. A series of increasing concentrations of each peptide (0.2 to 100 µM) was prepared beforehand in sterile MilliQ water. In each well, 10 µL of peptide was incubated with 90 µL of bacterial suspension (10^7 cfu/mL) in yeast extract-free LB medium. The microplate was incubated at 37° C. for 18 h. The bacterial growth was evaluated by measuring the OD at 620 nm using a plate reader.
(§2) The negative growth inhibition control was obtained by replacing the solution containing the peptide by sterile MilliQ water. The positive control suitable for completely inhibiting the growth of the bacterial strains was obtained by replacing the solution containing the peptide by 10 µL of formaldehyde.
(§3) The results are interpreted by calculating the percentage of bacterial growth in each well according to the formula:
(§4) %Growth = (OD well - OD of T0)/(OD of T100-OD of T0)*100 where
(§5) • OD of T100 = OD of growth control (bacterial suspension free from sample under test, 100% growth), • OD of T0 = OD of sterility control (culture medium + bacterium + 10 µL formaldehyde, 0% growth) and • OD well = OD of well for which it is sought to calculate the growth percentage (bacterial suspension + peptide under test).
(§6) The MBC is defined as being the minimum peptide concentration leaving no surviving bacteria of the inoculum after incubation at 37° C. for 24 hours. This test consists of smearing the contents of the well wherein the peptide has inhibited bacterial growth on a Petri dish (LB agar), followed by incubation for 24 h at 37° C.
(§7) A 10 mL preculture in Muller-Hinton (MH) medium is prepared by inoculating a colony of the bacterial strain of interest. The preculture is incubated at 37° C. under stirring overnight. The culture is subcultured to 1:100 under the same conditions. The culture concentration is evaluated by measuring the turbidity at 600 nm (OD600 nm 1.0 = 5 × 10^8 CFU/mL for E. coli (Gram-negative bacteria) and 1.5 × 10^8 CFU/mL for S. aureus (Gram-positive bacteria). Once the exponential growth phase (OD600 nm = 0.3 - 0.7) has been achieved, the cultures are diluted in MH medium so as to obtain 10^6 CFU/mL (final inoculum concentration).
(§8) The MIC and the MBC were determined as per the protocol described in part 2.1 of Example 2.

[2] = tested on: Staphylococcus aureus ATCC 6538; experiment: MIC/MBC (Example 10, MH medium); conditions: Table 5; S. aureus ATCC 6538
Description: as §1, §2, §3, §4, §5, §6, §7, §8

[3] = tested on: Pseudomonas aeruginosa ATCC 9027; experiment: MIC/MBC (Example 10, MH medium); conditions: Table 5; P. aeruginosa ATCC 9027
Description: as §1, §2, §3, §4, §5, §6, §7, §8

[4] = tested on: Escherichia coli ATCC 8739; experiment: MIC/MBC (Example 10, MH medium); conditions: Table 5; E. coli ATCC 8739
Description: as §1, §2, §3, §4, §5, §6, §7, §8

[5] = tested on: immune cells obtained from mouse bone marrow; experiment: Cytotoxic effects on immune cells obtained from mouse bone marrow; conditions: 12.5 µM; 2 hours
Description: (§9) The mouse immune cells are obtained from C57BL/6 or Balb/c mouse bone marrow. The peptides are incubated at 37° C., 5% CO2 in the presence of 500,000 immune cells in RPMI medium at varied concentrations for 2 hours. Peptide-free cells are used as the negative control and cells in the presence of DMSO (30%) are used as the positive control. After incubation, the cells are washed then labelled with Trypan blue so as to measure the cell viability by microscope counting. The LC50 is then calculated as being the concentration of DA2N, K12A and DANa peptides inducing the death of 50% of the immune cells.

[6] = as above; conditions: mouse immune cells originating from bone marrow, read-out: LC50
Description: as §9

Row | Compound | MBC [1] [µM] | MIC [1] [µM] | MBC [2] [µM] | MIC [2] [µM] | MBC [3] [µM] | MIC [3] [µM] | MBC [4] [µM] | MIC [4] [µM] | death of immune cells [5] | CC50 at 2 hours [6] [µM]
1 | CSCC[C@@H](NC(=O)[C@@H](CC(N)=O)NC(=O)[C@H](NC(=O)[C@H](NC(=O)[C@@H](C)NC(=O)[C@@H](CC(N)=O)NC(=O)[C@@H](CC(C)C)NC(=O)[C@H](NC(=O)[C@@H](C)NC(=O)[C@@H](CCCCN)NC(=O)CNC(=O)[C@@H](C)NC(=O)[C@H](NC(=O)[C@@H](CCCCN)NC(=O)CNC(=O)[C@H](NC(=O)[C@@H](CCCCN)NC(=O)[C@@H](CCCCN)NC(=O)[C@@H](CC(C)C)NC(=O)[C@@H](CC(C)C)NC(=O)[C@H](NC(=O)[C@@H](CCCCN)NC(=O)[C@@H](Cc1c[nH]c2ccccc12)NC(=O)[C@@H](CC(C)C)NC(=O)[C@@H](C)N)[C@H](C)O)C(C)C)C(C)C)C(C)C)C(C)C)[C@H](C)O)C(=O)N[C@H](C)C(=O)N[C@H](CC(N)=O)C(=O)N[C@H](CCC(N)=O)C(=O)N[C@H](CC(N)=O)C(=O)O [DA2N (D), dAdLdWdKdTdLdLdKddKdVdGdKdVdAdGdKdAdVdLdNdAdVdTdNdMdAdNdQdN] (H-[dA][dL][dW][dK][dT][dL][dL][dK][dK][dV]G[dK][dV][dA]G[dK][dA][dV][dL][dN][dA][dV][dT][dN][dM][dA][dN][dQ][dN]-OH; N-terminus and C-terminus assumed) | 3.1 (≈ 9.55 µg/mL) | 3.1 (≈ 9.55 µg/mL) | 0.8 (≈ 2.47 µg/mL) | 0.8 (≈ 2.47 µg/mL) | 0.8 (≈ 2.47 µg/mL) | 0.8 (≈ 2.47 µg/mL) | 0.8 (≈ 2.47 µg/mL) | 0.4 (≈ 1.23 µg/mL) | induce the death of immune cells at a concentration of 12.5 µM with a comparable efficacy to DA2N | –
2 | CSCC[C@@H](NC(=O)[C@@H](CC(N)=O)NC(=O)[C@H](NC(=O)[C@H](NC(=O)[C@@H](C)NC(=O)[C@@H](CC(N)=O)NC(=O)[C@@H](CC(C)C)NC(=O)[C@H](NC(=O)[C@@H](C)NC(=O)[C@@H](CCCCN)NC(=O)CNC(=O)[C@@H](C)NC(=O)[C@H](NC(=O)[C@@H](CCCCN)NC(=O)CNC(=O)[C@H](NC(=O)[C@@H](CCCCN)NC(=O)[C@@H](CCCCN)NC(=O)[C@@H](CC(C)C)NC(=O)[C@@H](CC(C)C)NC(=O)[C@H](NC(=O)[C@@H](CCCCN)NC(=O)[C@@H](Cc1c[nH]c2ccccc12)NC(=O)[C@@H](CC(C)C)NC(=O)[C@@H](C)N)[C@H](C)O)C(C)C)C(C)C)C(C)C)C(C)C)[C@H](C)O)C(=O)N[C@H](C)C(=O)N[C@H](CC(N)=O)C(=O)N[C@H](CCC(N)=O)C(=O)N[C@H](CC(N)=O)C(=O)N[C@H](CCC(=O)O)C(=O)N[C@H](CCC(N)=O)C(=O)O [DA2NEQ (D), dAdLdWdKdTdLdLdKdKdVdGdKdVdAdGdKdAdVdLdNdAdVdTdNdMdAdNdQdNdEdQ] (H-[dA][dL][dW][dK][dT][dL][dL][dK][dK][dV]G[dK][dV][dA]G[dK][dA][dV][dL][dN][dA][dV][dT][dN][dM][dA][dN][dQ][dN][dE][dQ]-OH; N-terminus and C-terminus assumed) | 12.5 (≈ 41.7 µg/mL) | 12.5 (≈ 41.7 µg/mL) | 1.6 (≈ 5.34 µg/mL) | 1.6 (≈ 5.34 µg/mL) | 3.1 (≈ 10.4 µg/mL) | 1.6 (≈ 5.34 µg/mL) | 0.8 (≈ 2.67 µg/mL) | 0.8 (≈ 2.67 µg/mL) | – | –
3 | ALWDTLLKKVGKVAGKAVLNAVTNMANQN [K4D] | 50 | 50 | 12.5 | 12.5 | 25 | 25 | 12.5 | 12.5 | – | –
4 | ALWKTLAKKVGKVAGKAVLNAVTNMANQN [L7A] | 6.3 | 6.3 | 3.1 | 3.1 | 1.6 | 1.6 | 0.8 | 0.8 | – | –
5 | ALWKTLLKKVGAVAGKAVLNAVTNMANQN [K12A] | 12.5 | 12.5 | 6.3 | 3.1 | 6.3 | 6.3 | 1.6 | 1.6 | – | 6.5
6 | ALWKTLLKKVGKAAGKAVLNAVTNMANQN [V13A] | 50 | 50 | 12.5 | 6.3 | 6.3 | 6.3 | 1.6 | 1.6 | – | –
7 | ALWKTLLKKVGKVAGKAVLNAVTNAANQN [M25A] | 12.5 | 12.5 | 3.1 | 3.1 | 3.1 | 3.1 | 0.8 | 0.8 | – | –
8 | ALWKTLLKKVGKVAGKAVLNAVTNMANQN-NH2 [DA2Na] | 3.1 | 3.1 | 1.6 | 0.8 | 1.6 | 1.6 | 0.8 | 0.8 | – | 3.75
9 | ALWKTLLKKVGKVAGKAVLNAVTNMANQNE-OH [DA2NE] | 50 | 12.5 | 12.5 | 3.1 | 3.1 | 3.1 | 1.6 | 0.8 | induce the death of immune cells at a concentration of 12.5 µM with a comparable efficacy to DA2N | –
10 | ALWKTLLKKVGKVDGKAVLNAVTNMANQN [A14D] | >50 | >50 | >50 | >50 | >50 | 50 | 6.3 | 6.3 | – | –
11 | ALWKTLLKKVGKVKGKAVLNAVTNMANQN [A14K] | >50 | >50 | 50 | 25 | 12.5 | 12.5 | 1.6 | 1.6 | – | –
12 | ALWKTLLKKVGPVAGKAVLNAVTNMANQN [K12P] | >50 | >50 | 6.3 | 6.3 | 12.5 | 12.5 | 6.3 | 6.3 | – | –
13 | Gramicidin [reference compound] | 0.8 | 0.8 | >50 | >50 | >100 | >100 | >100 | >100 | – | –

From patent US20230192772A1, “ANTIMICROBIAL PEPTIDES AND USES THEREOF” (SORBONNE UNIVERSITE, priority 2016, published 2023)
